Measured values reported in patent US8338108B2, “Agent for promoting the production of thioredoxin” (Kyoto University, priority 2006, dated 2012).

System: A549 cells
Assay: Cytoprotective action to stimulation by cigarette smoke extract (LDH assay)
Format: cell-based, human
Details: NAC 0.1 mM, FIG. 2
Experimental: A549 cells were pre-incubated for 16 hours with addition of a test substance (0.01 U/mL) in a DMEM medium wherefrom thiol was removed. Incubation was conducted for 6 hours more after addition of a cigarette smoke extract […] and, after that, LDH in the supernatant liquid of the culture was measured by means of an LDH assay (Roche Diagnostics) and used as an index for viability of the cells. The cigarette smoke extract (CSE) was prepared using a cigarette smoke generator SG-200 (Shibata Kagaku). Thus, smoke of ten cigarettes (Kentucky Research Cigarette 2R4F) which was passed through 10 mL of DMEM wherefrom thiol was removed (10% HEPES was added thereto) was defined as 100% CSE and used after appropriately diluting to the concentrations which were suitable for the experiments.

CC(=O)N[C@@H](CS)C(=O)O [NAC, N-acetylcysteine]
cell injury by CSE, effect of the extract compared with NAC: identical
